In patent publication US20230047788A1, “COMPOSITIONS COMPRISING 5-CHOLESTEN-3, 25-DIOL, 3-SULFATE (25HC3S) OR PHARMACEUTICALLY ACCEPTABLE SALT THEREOF AND AT LEAST ONE CYCLIC OLIGOSACCHARIDE” (Virginia Commonwealth University, priority 2016, published 2023):
Where “and” joins values, the source holds several entries; their conditions need not be identical. Identical values can stand only once.

Test: Infusion compatibility of constituted 25HC3S solution with 5% dextrose, 0.9% sodium chloride and two infusion sets
Format: physicochemical
Settings: for % Remaining after infusion set / Concentration after infusion set / Osmolality after infusion set / pH after infusion set: 0.9% NaCl
Description: After constitution with Vehicle, the 30 mg/mL 25HC3S product was diluted into 100 mL of 5% dextrose injection, USP or 0.9% sodium chloride injection, USP, and was administered to subjects as an IV infusion ranging from a 30 mg to 150 mg 25HC3S dose. This was accomplished by adding 1.0 mL (for the 30 mg dose) or 5.0 mL (for the 150 mg dose), or any volume in between, of the 30 mg/mL 25HC3S product into a 100 mL dextrose or sodium chloride infusion bag. The entire admixture content in the infusion bag was infused into the subject over approximately 2 hours at a rate of 50 mL/hour.
A physical and chemical compatibility study was conducted at a 30 mg, 48 mg and 300 mg 25HC3S dose in 5% dextrose and 0.9% sodium chloride infusion bags. Descriptions of the two kinds of infusion sets tested with 25HC3S product diluted in 5% dextrose and 0.9% sodium chloride are listed in Table 15. The tubing in catalog number 2H8480 infusion set was composed of polyvinylchloride (PVC), while the tubing in catalog number 2C8858 was polyethylene lined except for a short pump segment (approximately 12 inches) which was composed of PVC.
25HC3S for Injection and Vehicle for 25HC3S for Injection, that had been stored at 2-8° C. for approximately 16 months, were used for the compatibility study. After constitution, 30 mg (1.0 mL of constituted product), 48 mg (1.6 mL of constituted product) or 300 mg (10 mL of constituted product) were added to 100 mL infusion bags of 5% dextrose and 0.9% sodium chloride, mixed thoroughly, and stored for 24 hours at room temperature and at 2-8° C. […] Taking into consideration the overfill per infusion bag and the additional volume introduced by adding the constituted 25HC3S product to each bag, the expected concentrations of 25HC3S were 0.28 mg/mL, 0.44 mg/mL, and 2.56 mg/mL in the infusion bags. Two kinds of infusion sets were then attached to the drug containing infusion bags, and the entire contents were eluted through the infusion sets at approximately 50 mL/hour at room temperature. Samples were collected from the 25HC3S prepared infusion bags at T=0 and at 24 hours, and from the total eluent passed through the infusion sets, and tested for 25HC3S concentration using HPLC. Solution visual appearance, osmolality (using method USP<785>), and pH (using method USP<791>) were also measured on the collected samples.

[1] = ~0.28 mg/mL, 24 h 2-8°C then Baxter 2C8858
[2] = ~0.28 mg/mL, 24 h 2-8°C then Baxter 2H8480
[3] = ~0.28 mg/mL, 24 h RT then Baxter 2C8858
[4] = ~0.28 mg/mL, 24 h RT then Baxter 2H8480
[5] = ~0.44 mg/mL, 24 h 2-8°C then Baxter 2C8858
[6] = ~0.44 mg/mL, 24 h 2-8°C then Baxter 2H8480
[7] = ~0.44 mg/mL, 24 h RT then Baxter 2C8858
[8] = ~0.44 mg/mL, 24 h RT then Baxter 2H8480
[9] = ~2.56 mg/mL, 24 h 2-8°C then Baxter 2C8858
[10] = ~2.56 mg/mL, 24 h 2-8°C then Baxter 2H8480
[11] = ~2.56 mg/mL, 24 h RT then Baxter 2C8858
[12] = ~2.56 mg/mL, 24 h RT then Baxter 2H8480
[13] = 0.9% sodium chloride bag, ~0.28 mg/mL, 24 Hours at 2-8°C
[14] = 0.9% sodium chloride bag, ~0.28 mg/mL, 24 Hours at RT
[15] = 0.9% sodium chloride bag, ~0.28 mg/mL, T = 0
[16] = 0.9% sodium chloride bag, ~0.44 mg/mL, 24 Hours at 2-8°C
[17] = 0.9% sodium chloride bag, ~0.44 mg/mL, 24 Hours at RT
[18] = 0.9% sodium chloride bag, ~0.44 mg/mL, T = 0
[19] = 0.9% sodium chloride bag, ~2.56 mg/mL, 24 Hours at 2-8°C
[20] = 0.9% sodium chloride bag, ~2.56 mg/mL, 24 Hours at RT
[21] = 0.9% sodium chloride bag, ~2.56 mg/mL, T = 0

Compound: C[C@H](CCCC(C)(C)O)[C@H]1CC[C@H]2[C@@H]3CC=C4C[C@@H](OS(=O)(=O)[O-])CC[C@]4(C)[C@H]3CC[C@]12C.[Na+] [25HC3S, 5-cholesten-3, 25-diol, 3-sulfate]
- % Remaining after infusion set [1]: (100.0%)
- Concentration after infusion set [1]: 275 µg/mL
- Osmolality after infusion set [1]: 276 mmol/kg
- pH after infusion set [1]: 5.78
- % Remaining after infusion set [2]: (100.4%)
- Concentration after infusion set [2]: 275 µg/mL
- Osmolality after infusion set [2]: 277 mmol/kg
- pH after infusion set [2]: 5.81
- % Remaining after infusion set [3]: (100.0%)
- Concentration after infusion set [3]: 274 µg/mL
- Osmolality after infusion set [3]: 276 mmol/kg
- pH after infusion set [3]: 5.83
- % Remaining after infusion set [4]: (99.6%)
- Concentration after infusion set [4]: 272 µg/mL
- Osmolality after infusion set [4]: 276 mmol/kg
- pH after infusion set [4]: 5.78
- % Remaining after infusion set [5]: (100.2%)
- Concentration after infusion set [5]: 426 µg/mL
- Osmolality after infusion set [5]: 281 mmol/kg
- pH after infusion set [5]: 7.16
- % Remaining after infusion set [6]: (100.0%)
- Concentration after infusion set [6]: 434 µg/mL
- Osmolality after infusion set [6]: 282 mmol/kg
- pH after infusion set [6]: 7.13
- % Remaining after infusion set [7]: (100.0%)
- Concentration after infusion set [7]: 424 µg/mL
- Osmolality after infusion set [7]: 288 mmol/kg
- pH after infusion set [7]: 7.20
- % Remaining after infusion set [8]: (99.8%)
- Concentration after infusion set [8]: 433 µg/mL
- Osmolality after infusion set [8]: 286 mmol/kg
- pH after infusion set [8]: 7.09
- % Remaining after infusion set [9]: (99.8%)
- Concentration after infusion set [9]: 2520 µg/mL
- Osmolality after infusion set [9]: 283 mmol/kg
- pH after infusion set [9]: 5.70
- % Remaining after infusion set [10]: (100.0%)
- Concentration after infusion set [10]: 2530 µg/mL
- Osmolality after infusion set [10]: 283 mmol/kg
- pH after infusion set [10]: 5.72
- % Remaining after infusion set [11]: (99.6%)
- Concentration after infusion set [11]: 2520 µg/mL
- Osmolality after infusion set [11]: 279 mmol/kg
- pH after infusion set [11]: 5.83
- % Remaining after infusion set [12]: (100.4%)
- Concentration after infusion set [12]: 2460 µg/mL
- Osmolality after infusion set [12]: 283 mmol/kg
- pH after infusion set [12]: 5.81
- Concentration [13]: 275 µg/mL
- Osmolality [13]: 276 mmol/kg
- pH [13]: 5.87 and 5.99
- Concentration [14]: 272 µg/mL and 274 µg/mL
- Osmolality [14]: 275 mmol/kg and 277 mmol/kg
- pH [14]: 5.93 and 5.92
- Osmolality [15]: 278 mmol/kg and 277 mmol/kg
- T = 0 Conc. [15]: 0.273 mg/mL and 0.274 mg/mL and 0.275 mg/mL
- pH [15]: 6.39 and 6.43 and 6.45 and 6.40
- % Remaining Compared to T = 0 [16]: (100.0%)
- Concentration [16]: 434 µg/mL and 425 µg/mL
- Osmolality [16]: 281 mmol/kg
- pH [16]: 7.43 and 7.19
- % Remaining Compared to T = 0 [17]: (100.0%)
- Concentration [17]: 434 µg/mL and 424 µg/mL
- Osmolality [17]: 280 mmol/kg
- pH [17]: 7.33 and 7.41
- Osmolality [18]: 277 mmol/kg and 279 mmol/kg and 284 mmol/kg and 280 mmol/kg
- T = 0 Conc. [18]: 0.434 mg/mL and 0.424 mg/mL and 0.425 mg/mL
- pH [18]: 7.30 and 7.43 and 7.21 and 7.44
- Concentration [19]: 2510 µg/mL and 2520 µg/mL
- Osmolality [19]: 283 mmol/kg
- pH [19]: 5.93 and 5.96
- Concentration [20]: 2500 µg/mL and 2525 µg/mL
- Osmolality [20]: 282 mmol/kg
- pH [20]: 6.01 and 5.86
- Osmolality [21]: 282 mmol/kg and 281 mmol/kg
- T = 0 Conc. [21]: 2.450 mg/mL and 2.530 mg/mL and 2.525 mg/mL
- pH [21]: 6.20 and 6.10 and 6.07 and 6.11
- deviation of concentrations from initial T=0 time point (0.9% sodium chloride, 24 hours at RT and 2-8°C and after elution through infusion sets): ≤ 2.0%
- Concentration (5% dextrose bag, ~0.28 mg/mL, 24 Hours at 2-8°C): 280 µg/mL
